Data on 29 molecules can be found in patent publication US10300071B2, “Compositions and methods for inhibition of mycobacteria” (priority 2014, dated 2019).

Converted amounts (≈) assume the structure as drawn. Like-named read-outs stand apart in the source and are kept apart here.

Series [1] concerns the target Mtb AccD6 (Mycobacterium tuberculosis, UniProt P9WQH5). The series is described as follows: biochemical. The series is classed as biochemical. The settings on record: for IC50: 300 μM malonyl-CoA, inhibitor 10 μM to 2000 μM.
The subject of series [2] is Mtb strain mc^2-7000. The experiment in a line: microbe, parasite or virus in culture. The series is classed as cell-based, Mycobacterium tuberculosis. The note with it: 6 days incubation at 37° C., resazurin, read on the 7th day.
Series [3] concerns S. cerevisiae.
In series [4] the test system is human fibroblast.
[5] abbreviates: Mycobacterium tuberculosis, 144 h, read-out: MIC.

One may read the IC50 as the concentration that inhibits the measured activity by half. What is called inhibition is the percentage by which the read-out fell short of the control.

Chain of Mtb AccD6 (P9WQH5 whole entry, looked up): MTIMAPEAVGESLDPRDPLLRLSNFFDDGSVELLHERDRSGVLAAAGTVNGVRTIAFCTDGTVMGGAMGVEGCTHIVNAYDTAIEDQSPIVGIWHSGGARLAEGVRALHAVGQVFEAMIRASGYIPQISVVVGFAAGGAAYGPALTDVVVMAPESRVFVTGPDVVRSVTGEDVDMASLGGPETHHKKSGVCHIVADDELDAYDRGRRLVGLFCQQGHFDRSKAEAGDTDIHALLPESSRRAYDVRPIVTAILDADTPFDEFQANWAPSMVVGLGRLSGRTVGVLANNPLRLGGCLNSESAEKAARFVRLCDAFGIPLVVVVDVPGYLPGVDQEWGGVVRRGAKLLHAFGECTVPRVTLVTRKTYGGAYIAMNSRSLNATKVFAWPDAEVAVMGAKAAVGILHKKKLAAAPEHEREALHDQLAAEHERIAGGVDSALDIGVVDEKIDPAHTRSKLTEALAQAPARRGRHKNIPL

In the case of `CONC(=O)C(C)c1ccc(Oc2nc3ccc(F)cc3s2)cc1` (racemic) [NZ-330, 2-{4-[(6-fluoro-1,3-benzothiazol-2-yl)oxy]phenyl}-N-methoxypropanamide], the 50% inhibitory concentration (IC50) in series [1] (read-out: IC50) was 0.24 µM. The MIC in series [2] (setting [5]) came to 1.5 µM (≈ 0.52 µg/mL). Besides, in series [3], the “concentrations at which not toxic, s. cerevisiae cytotoxicity” value is at least 100 µM. The “concentrations at which not toxic, human fibroblast cytotoxicity” value in series [4] is at least 100 µM.
For the molecule `CCOC(=O)[C@@H](C)Oc1ccc(Oc2nc3ccc(F)cc3s2)cc1` [NZ-251, ethyl (2R)-2-{4-[(6-fluoro-1,3-benzothiazol-2-yl)oxy]phenoxy}propanoate], the MIC in series [2] (setting [5]) was 0.23 µM (≈ 0.0831 µg/mL). In addition, in series [3], the “concentrations at which not toxic, s. cerevisiae cytotoxicity” value is at least 100 µM. The “concentrations at which not toxic, human fibroblast cytotoxicity” value in series [4] was at least 100 µM.
Take `CONC(=O)COc1ccc(Oc2cnc3cc(Cl)ccc3n2)cc1` [NZ-274, 2-{4-[(6-chloroquinoxalin-2-yl)oxy]phenoxy}-N-methoxyacetamide]: the IC50 in series [1] (read-out: IC50) was 3.7 µM. The MIC in series [2] (setting [5]) was found to be 0.173 µM (≈ 0.0622 µg/mL). The “concentrations at which not toxic, s. cerevisiae cytotoxicity” value in series [3] was at least 100 µM. Besides, the “concentrations at which not toxic, human fibroblast cytotoxicity” value in series [4] is at least 100 µM.
Consider `O=C(O)Cc1ccc(Oc2nc3ccc(Cl)cc3s2)cc1` [NZ-287, 2-{4-[(6-chloro-1,3-benzothiazol-2-yl)oxy]phenyl}acetic acid], for which the half-maximal inhibitory concentration (IC50) in series [1] (read-out: IC50) is 0.52 µM. For the same molecule, the MIC in series [2] (setting [5]) is 12 µM (≈ 3.84 µg/mL). Besides, in series [3], the “concentrations at which not toxic, s. cerevisiae cytotoxicity” value was at least 100 µM. In addition, the “concentrations at which not toxic, human fibroblast cytotoxicity” value in series [4] is at least 100 µM.
Consider `COC(=O)COc1ccc(Oc2nc3ccc(F)cc3s2)cc1` [NZ-303, methyl 2-{4-[(6-fluoro-1,3-benzothiazol-2-yl)oxy]phenoxy}acetate], for which, in series [1] (read-out: inhibition at 20 uM), the inhibition at 20 µM was 50%. Further, in series [2] (setting [5]), the MIC is 4.5 µM. Further, the “concentrations at which not toxic, human fibroblast cytotoxicity” value in series [4] is at least 100 µM.
As to `CONC(=O)C(C)(C)Oc1ccc(Oc2cnc3cc(Cl)ccc3n2)cc1` [NZ-316, 2-{4-[(6-chloroquinoxalin-2-yl)oxy]phenoxy}-N-methoxy-2-methylpropanamide], in series [2] (setting [5]), the MIC is 6 µM (≈ 2.33 µg/mL). Moreover, the “concentrations at which not toxic, s. cerevisiae cytotoxicity” value in series [3] was at least 100 µM. Moreover, in series [4], the “concentrations at which not toxic, human fibroblast cytotoxicity” value was at least 100 µM.
As for `COC(=O)C(C)(C)Oc1ccc(Oc2nc3ccc(Cl)cc3s2)cc1` [NZ-317, methyl 2-{4-[(6-chloro-1,3-benzothiazol-2-yl)oxy]phenoxy}-2-methylpropanoate], the MIC in series [2] (setting [5]) is 6 µM (≈ 2.27 µg/mL). Also, the “concentrations at which not toxic, s. cerevisiae cytotoxicity” value in series [3] was at least 100 µM. Further, the “concentrations at which not toxic, human fibroblast cytotoxicity” value in series [4] was at least 100 µM.
In the case of `CONC(=O)C(C)c1ccc(Oc2nc3ccc(OC)cc3s2)cc1` (stereo not drawn) [NZ-335, N-methoxy-2-{4-[(6-methoxy-1,3-benzothiazol-2-yl)oxy]phenyl}propanamide], the MIC in series [2] (setting [5]) was 12 µM (≈ 4.3 µg/mL). The “concentrations at which not toxic, s. cerevisiae cytotoxicity” value in series [3] was at least 100 µM. Further, the “concentrations at which not toxic, human fibroblast cytotoxicity” value in series [4] is at least 100 µM.
Take `COC(=O)C(O)c1ccc(Oc2nc3ccc(Cl)cc3s2)cc1` (stereo not drawn) [NZ-336, methyl 2-{4-[(6-chloro-1,3-benzothiazol-2-yl)oxy]phenyl}-2-hydroxyacetate]: the MIC in series [2] (setting [5]) was found to be 12 µM (≈ 4.2 µg/mL). Further, the “concentrations at which not toxic, s. cerevisiae cytotoxicity” value in series [3] was in the range of 50 to 100 µM. Moreover, the “concentrations at which not toxic, human fibroblast cytotoxicity” value in series [4] fell in the range of 50 to 100 µM.
In the case of `CONC(=O)C(O)c1ccc(Oc2nc3ccc(Cl)cc3s2)cc1` (stereo not drawn) [NZ-338, 2-{4-[(6-chloro-1,3-benzothiazol-2-yl)oxy]phenyl}-2-hydroxy-N-methoxyacetamide], the IC50 in series [1] (read-out: IC50) was found to be 7.2 µM. In addition, the MIC in series [2] (setting [5]) amounted to 25 µM (≈ 9.12 µg/mL). Also, in series [4], the “concentrations at which not toxic, human fibroblast cytotoxicity” value is at least 100 µM.
For `CN(C)C(=O)Nc1ccc(Oc2cnc3cc(Cl)ccc3n2)cc1` [NZ-343, 1-{4-[(6-chloroquinoxalin-2-yl)oxy]phenyl}-3,3-dimethylurea], the IC50 in series [1] (read-out: IC50) is 0.4 µM. In addition, the MIC in series [2] (setting [5]) was 25 µM (≈ 8.57 µg/mL). The “concentrations at which not toxic, human fibroblast cytotoxicity” value in series [4] was at least 100 µM.
As to `CC(C)NC(=O)Nc1ccc(Oc2cnc3cc(F)ccc3n2)cc1` [NZ-345, 1-{4-[(6-fluoroquinoxalin-2-yl)oxy]phenyl}-3-(propan-2-yl)urea], the IC50 in series [1] (read-out: IC50) is 0.5 µM. Moreover, the MIC in series [2] (setting [5]) worked out at 25 µM (≈ 8.51 µg/mL). Besides, in series [4], the “concentrations at which not toxic, human fibroblast cytotoxicity” value was at least 100 µM.
The matching figures for `CC(C)NC(=O)Nc1ccc(Oc2ccc3cc(Cl)ccc3n2)cc1` [NZ-346, 1-{4-[(6-chloroquinolin-2-yl)oxy]phenyl}-3-(propan-2-yl)urea]: 0.4 µM, 50 µM (≈ 17.8 µg/mL) and at least 100 µM.
As for `CC(C)(C)OC(=O)NCc1ccc(Oc2nc3ccc(Cl)cc3s2)cc1` [NZ-347, tert-butyl N-({4-[(6-chloro-1,3-benzothiazol-2-yl)oxy]phenyl}methyl)carbamate], the IC50 entry in series [1] is reported as “Not Active”. Besides, in series [2] (setting [5]), the MIC amounted to 15 µM (≈ 5.86 µg/mL). Also, in series [3], the “concentrations at which not toxic, s. cerevisiae cytotoxicity” value is at least 100 µM.
As for `NCc1ccc(Oc2nc3ccc(Cl)cc3s2)cc1` [NZ-348, {4-[(6-chloro-1,3-benzothiazol-2-yl)oxy]phenyl}methanamine], the half-maximal inhibitory concentration (IC50) result in series [1] is on record as “Not Active”. The MIC in series [2] (setting [5]) stood at 2 µM (≈ 0.582 µg/mL). In addition, the “concentrations at which not toxic, s. cerevisiae cytotoxicity” value in series [3] was in the range of 25 to 50 µM.
Regarding `CN(C)C(=O)NCc1ccc(Oc2nc3ccc(Cl)cc3s2)cc1` [NZ-349, 1-({4-[(6-chloro-1,3-benzothiazol-2-yl)oxy]phenyl}methyl)-3,3-dimethylurea], the IC50 in series [1] (read-out: IC50) stood at 7 µM. The MIC in series [2] (setting [5]) came out at 8 µM (≈ 2.89 µg/mL). In addition, the “concentrations at which not toxic, s. cerevisiae cytotoxicity” value in series [3] is at least 100 µM.
`CNC(=O)NCc1ccc(Oc2nc3ccc(Cl)cc3s2)cc1` [NZ-350, 1-({4-[(6-chloro-1,3-benzothiazol-2-yl)oxy]phenyl}methyl)-3-methylurea]: the IC50 in series [1] (read-out: IC50) stood at 1.6 µM. In series [2], the MIC entry is “Not Active”. For the same molecule, the “concentrations at which not toxic, s. cerevisiae cytotoxicity” value in series [3] was at least 100 µM.
Consider `CC(C)(C)OC(=O)Nc1ccc(Oc2nc3ccc(Cl)cc3s2)cc1` [NZ-351, tert-butyl N-{4-[(6-chloro-1,3-benzothiazol-2-yl)oxy]phenyl}carbamate], for which, in series [1], the half-inhibitory concentration (IC50) result is reported as “Not Active”. Besides, in series [2], the MIC result was “Not Active”. Also, the “concentrations at which not toxic, s. cerevisiae cytotoxicity” value in series [3] is at least 100 µM.
As for `Nc1ccc(Oc2nc3ccc(Cl)cc3s2)cc1` [NZ-352, 4-[(6-chloro-1,3-benzothiazol-2-yl)oxy]aniline], the IC50 entry in series [1] is “Not Active”. The MIC in series [2] (setting [5]) was 1.5 µM (≈ 0.415 µg/mL). Besides, in series [3], the “concentrations at which not toxic, s. cerevisiae cytotoxicity” value is 25 to 50 µM.
Turning to `CNC(=O)Nc1ccc(Oc2nc3ccc(Cl)cc3s2)cc1` [NZ-353, 1-{4-[(6-chloro-1,3-benzothiazol-2-yl)oxy]phenyl}-3-methylurea], the half-maximal inhibitory concentration (IC50) in series [1] (read-out: IC50) worked out at 4 µM. Besides, the MIC entry in series [2] is listed as “Not Active”. Also, in series [3], the “concentrations at which not toxic, s. cerevisiae cytotoxicity” value is at least 100 µM.
Take `CN(C)C(=O)Nc1ccc(Oc2nc3ccc(Cl)cc3s2)cc1` [NZ-354, 1-{4-[(6-chloro-1,3-benzothiazol-2-yl)oxy]phenyl}-3,3-dimethylurea]: in series [1] (read-out: IC50), the half-inhibitory concentration (IC50) was determined as 7.3 µM. For the same molecule, in series [2] (setting [5]), the MIC came to 1 µM (≈ 0.348 µg/mL). Moreover, the “concentrations at which not toxic, s. cerevisiae cytotoxicity” value in series [3] lay within 50 to 100 µM.
The matching figures for `COC(=O)C(OC)c1ccc(Oc2nc3ccc(Cl)cc3s2)cc1` (stereo not drawn) [NZ-355, methyl 2-{4-[(6-chloro-1,3-benzothiazol-2-yl)oxy]phenyl}-2-methoxyacetate]: 20 µM, 4.5 µM (≈ 1.64 µg/mL) and at least 100 µM.
The matching figures for `COC(C(=O)O)c1ccc(Oc2nc3ccc(Cl)cc3s2)cc1` (stereo not drawn) [NZ-356, 2-{4-[(6-chloro-1,3-benzothiazol-2-yl)oxy]phenyl}-2-methoxyacetic acid]: 1.7 µM, 25 µM (≈ 8.74 µg/mL) and at least 100 µM.
On to `CONC(=O)C(OC)c1ccc(Oc2nc3ccc(Cl)cc3s2)cc1` (stereo not drawn) [NZ-357, 2-{4-[(6-chloro-1,3-benzothiazol-2-yl)oxy]phenyl}-N,2-dimethoxyacetamide], for which the half-inhibitory concentration (IC50) in series [1] (read-out: IC50) was determined as 3.6 µM. The MIC in series [2] (setting [5]) came out at 20 µM (≈ 7.58 µg/mL). Further, the “concentrations at which not toxic, s. cerevisiae cytotoxicity” value in series [3] was at least 100 µM.
On the same counts, the results for `Cc1ccc2nc(Oc3ccc(NC(=O)NC(C)C)cc3)sc2c1` [NZ-358, 1-{4-[(6-methyl-1,3-benzothiazol-2-yl)oxy]phenyl}-3-(propan-2-yl)urea] are 20 µM, 5.8 µM (≈ 1.98 µg/mL) and at least 100 µM.
The matching figures for `CC(C)NC(=O)Nc1ccc(Oc2nc3ccc(Br)cc3s2)cc1` [NZ-359, 1-{4-[(6-bromo-1,3-benzothiazol-2-yl)oxy]phenyl}-3-(propan-2-yl)urea]: 8.4 µM, above 50 µM and at least 100 µM.
For `CC(C)NC(=O)Nc1ccc(Oc2nc3ccccc3s2)cc1` [NZ-360, 1-[4-(1,3-benzothiazol-2-yloxy)phenyl]-3-(propan-2-yl)urea], the half-inhibitory concentration (IC50) in series [1] (read-out: IC50) amounted to 13.3 µM. Further, the MIC in series [2] (setting [5]) stood at 4.3 µM (≈ 1.41 µg/mL). Also, the “concentrations at which not toxic, s. cerevisiae cytotoxicity” value in series [3] is at least 100 µM.
The matching figures for `CC(C(=O)NCC(O)CO)c1ccc(Oc2nc3ccc(Cl)cc3s2)cc1` (stereo not drawn) [NZ-372, 2-{4-[(6-chloro-1,3-benzothiazol-2-yl)oxy]phenyl}-N-(2,3-dihydroxypropyl)propanamide]: 2.75 µM, 4.67 µM (≈ 1.9 µg/mL) and at least 100 µM.
As to `CC(C)NC(=O)Nc1ccc(Oc2nc3cc(Cl)c(Cl)cc3s2)cc1` [NZ-393, 1-{4-[(5,6-dichloro-1,3-benzothiazol-2-yl)oxy]phenyl}-3-(propan-2-yl)urea], in series [1] (read-out: IC50), the concentration for half-maximal inhibition (IC50) stood at 5.07 µM. Also, the “concentrations at which not toxic, s. cerevisiae cytotoxicity” value in series [3] is at least 100 µM. Moreover, the “concentrations at which not toxic, human fibroblast cytotoxicity” value in series [4] was at least 100 µM.
